In US10765662B2, “Mono- or di-substituted indole derivatives as dengue viral replication inhibitors” (Janssen Pharmaceuticals, Inc., priority 2015, dated 2020) one finds EC50 and CC50 data, which are given here for 18 compounds.

In data set [1] the test system is DENV-2 16681 strain labeled with enhanced green fluorescent protein. Nature of the data set: DENV-2 antiviral assay (eGFP fluorescence read-out in Vero cells). The format is cell-based, Dengue virus. The following applies: DENV-2 16681 eGFP, MOI 0.5, 3 days. The method, then:
The antiviral activity of all the compounds of the invention was tested against the DENV-2 16681 strain which was labeled with enhanced green fluorescent protein (eGPF). The culture medium consists of minimal essential medium supplemented with 2% of heat-inactivated fetal calf serum, 0.04% gentamycin (50 mg/mL) and 2 mM of L-glutamine. Vero cells, obtained from ECACC, were suspended in culture medium and 25 μL was added to 384-well plates (2500 cells/well), which already contain the antiviral compounds. Typically, these plates contain a 5-fold serial dilution of 9 dilution steps of the test compound at 200 times the final concentration in 100% DMSO (200 nL). […] Finally, each plate contains wells which are assigned as virus controls (containing cells and virus in the absence of compound), cell controls (containing cells in the absence of virus and compound) and medium controls (containing medium in the absence of cells, virus and compounds). To the wells assigned as medium control, 25 μL of culture medium was added instead of Vero cells. Once the cells were added to the plates, the plates were incubated for 30 minutes at room temperature to allow the cells to distribute evenly within the wells. Next, the plates were incubated in a fully humidified incubator (37° C., 5% CO2) until the next day. Then, DENV-2 strain 16681, labeled with eGFP, was added at a multiplicity of infection (MOI) of 0.5. Therefore, 15 μL of virus suspension was added to all the wells containing test compound and to the wells assigned as virus control. In parallel, 15 μL of culture medium was added to the medium and cell controls. Next, the plates were incubated for 3 days in a fully humidified incubator (37° C., 5% CO2). At the day of the read out, the eGFP fluorescence was measured using an automated fluorescence microscope at 488 nm (blue laser). Using an in-house LIMS system, inhibition dose response curves for each compound were calculated and the half maximal effective concentration (EC50) was determined. Therefore, the percent inhibition (I) for every test concentration is calculated using the following formula: I=100*([…])/(SVC−SCC); ST, SCC and SVC are the amount of eGFP signal in the test compound, cell control and virus control wells, respectively. The EC50 represents the concentration of a compound at which the virus replication is inhibited with 50%, as measured by a 50% reduction of the eGFP fluorescent intensity compared to the virus control. The EC50 is calculated using linear interpolation (Table 1).

The test system of the next data set is Vero cells. Nature of the data set: in vitro. It is filed as cell-based. The following applies: African green monkey. The method, then: (§1) In parallel, the toxicity of the compounds was assessed on the same plates. Once the read-out for the eGFP signal was done, 40 μL of ATPlite, a cell viability stain, was added to all wells of the 384-well plates. ATP is present in all metabolically active cells and the concentration declines very rapidly when the cells undergo necrosis or apoptosis. The ATPLite assay system is based on the production of light caused by the reaction of ATP with added luciferase and D-luciferin. The plates were incubated for 10 minutes at room temperature. Next, the plates were measured on a ViewLux. The half maximal cytotoxic concentration (CC50) was also determined, defined as the concentration required to reduce the luminescent signal by 50% compared to that of the cell control wells. Finally, the selectivity index (SI) was determined for the compounds, which was calculated as followed: SI=CC50/EC50.

A further data set can be described thus: in vitro. It is filed as cell-based. The following applies: African green monkey, CC50. The method, then: as §1
The mark [2] stands for this setting: Dengue virus, DENV2, Vero, 72 h.

Bounds are passed on as bounds.

For the compound `COc1cc(NC(C(=O)c2c[nH]c3cc(OC)c(C)cc23)c2ccc(Cl)cc2OCCO)cc(S(C)(=O)=O)c1` (single isomer, unassigned) [Compound 6B, 2-(4-chloro-2-(2-hydroxyethoxy)phenyl)-2-((3-methoxy-5-(methylsulfonyl)phenyl)amino)-1-(6-methoxy-5-methyl-1H-indol-3-yl)ethanone], the EC50 (in general, the concentration that produces a half-maximal response) in data set [1] worked out at 36 nM. In addition, in the data set with Vero cells, it took 5900 nM to reach half-maximal cytotoxicity (CC50).

On to `COc1cc(NC(C(=O)c2c[nH]c3cc(F)c(F)cc23)c2ccc(Cl)cc2OCCO)cc(S(C)(=O)=O)c1` (racemic) [Compound 7, 2-(4-chloro-2-(2-hydroxyethoxy)phenyl)-1-(5,6-difluoro-1H-indol-3-yl)-2-((3-methoxy-5-(methylsulfonyl)phenyl)amino)ethanone], for which, in data set [1] (setting [2]), the EC50 came out at 0.26 nM. Besides, the CC50 (in general, the concentration at which the toxic effect on the cells reaches its halfway point) in “in vitro” is 2800 nM.

Regarding `COc1cc(NC(C(=O)c2c[nH]c3c(C)c(Cl)ccc23)c2ccc(Cl)cc2OCCO)cc(S(C)(=O)=O)c1` (single isomer, unassigned) [Compound 5A, 2-(4-chloro-2-(2-hydroxyethoxy)phenyl)-1-(6-chloro-7-methyl-1H-indol-3-yl)-2-((3-methoxy-5-(methylsulfonyl)phenyl)amino)ethanone], the EC50 in data set [1] was 8.4 nM. This compound also returned a CC50 in “in vitro” of 5000 nM.

Turning to `COc1cc(NC(C(=O)c2c[nH]c3ccc(C(F)(F)F)cc23)c2ccc(Cl)cc2OCCO)cc(S(C)(=O)=O)c1` (single isomer, unassigned) [Compound 9A, 2-(4-chloro-2-(2-hydroxyethoxy)phenyl)-2-((3-methoxy-5-(methylsulfonyl)phenyl)amino)-1-(5-(trifluoromethyl)-1H-indol-3-yl)ethanone], in data set [1], the EC50 was found to be 1.9 nM. Besides, in the data set on Vero cells, half-maximal cytotoxicity (CC50) was put at 11000 nM.

On to `COc1cc(NC(C(=O)c2c[nH]c3c(C)c(F)ccc23)c2ccc(Cl)cc2OCCO)cc(S(C)(=O)=O)c1` (single isomer, unassigned) [Compound 4B, 2-(4-chloro-2-(2-hydroxyethoxy)phenyl)-1-(6-fluoro-7-methyl-1H-indol-3-yl)-2-((3-methoxy-5-(methylsulfonyl)phenyl)amino)ethanone], for which the EC50 in data set [1] worked out at 11 nM. In the data set with Vero cells, this compound registered a CC50 of 5700 nM.

In the case of `COc1cc(NC(C(=O)c2c[nH]c3cc(F)c(F)cc23)c2ccc(Cl)cc2OCCO)cc(S(C)(=O)=O)c1` (single isomer, unassigned) [Compound 7B, 2-(4-chloro-2-(2-hydroxyethoxy)phenyl)-1-(5,6-difluoro-1H-indol-3-yl)-2-((3-methoxy-5-(methylsulfonyl)phenyl)amino)ethanone], the EC50 in data set [1] is 5 nM. The CC50 in the data set on Vero cells turned out to be 9200 nM.

As for `COc1cc(NC(C(=O)c2c[nH]c3c(C)cc(OC(F)(F)F)cc23)c2ccc(Cl)cc2OCCO)cc(S(C)(=O)=O)c1` (racemic) [Compound 12, 2-(4-chloro-2-(2-hydroxyethoxy)phenyl)-2-((3-methoxy-5-(methylsulfonyl)phenyl)amino)-1-(7-methyl-5-(trifluoromethoxy)-1H-indol-3-yl)ethanone], the EC50 in data set [1] (setting [2]) was found to be 0.1 nM. In “in vitro”, this compound displayed a CC50 of 2500 nM.

Turning to `COc1cc(NC(C(=O)c2c[nH]c3cc(F)c(C)cc23)c2ccc(Cl)cc2OCCO)cc(S(C)(=O)=O)c1` (single isomer, unassigned) [Compound 8B, 2-(4-chloro-2-(2-hydroxyethoxy)phenyl)-1-(6-fluoro-5-methyl-1H-indol-3-yl)-2-((3-methoxy-5-(methylsulfonyl)phenyl)amino)ethanone], the EC50 in data set [1] was determined as 1.7 nM. The CC50 with Vero cells was > 2400 nM.

Take `COc1cc(NC(C(=O)c2c[nH]c3cc(Cl)ccc23)c2ccc(Cl)cc2OCCO)cc(S(C)(=O)=O)c1` (single isomer, unassigned) [Compound 2B, 1-(6-chloro-1H-indol-3-yl)-2-(4-chloro-2-(2-hydroxyethoxy)phenyl)-2-((3-methoxy-5-(methylsulfonyl)phenyl)amino)ethanone]: the EC50 in data set [1] amounted to 4.9 nM. This compound also displayed a CC50 with Vero cells of 11000 nM.

Turning to `COc1cc(NC(C(=O)c2c[nH]c3cc(F)ccc23)c2ccc(Cl)cc2OCCO)cc(S(C)(=O)=O)c1` (single isomer, unassigned) [Compound 1B, 2-(4-chloro-2-(2-hydroxyethoxy)phenyl)-1-(6-fluoro-1H-indol-3-yl)-2-((3-methoxy-5-(methylsulfonyl)phenyl)amino)ethanone], the EC50 in data set [1] is 3.5 nM. In the data set with Vero cells, this compound yielded a CC50 of 8400 nM.

Consider `COc1cc(NC(C(=O)c2c[nH]c3cc(OC)ccc23)c2ccc(Cl)cc2OCCO)cc(S(C)(=O)=O)c1` (single isomer, unassigned) [Compound 3B, 2-(4-chloro-2-(2-hydroxyethoxy)phenyl)-1-(6-methoxy-1H-indol-3-yl)-2-((3-methoxy-5-(methylsulfonyl)phenyl)amino)ethanone], for which, in data set [1], the EC50 was 56 nM. The same compound came in with a CC50 in the data set on Vero cells of 13000 nM.

In the case of `COc1cc(NC(C(=O)c2c[nH]c3cc(F)c(C)cc23)c2ccc(Cl)cc2OCCO)cc(S(C)(=O)=O)c1` (racemic) [Compound 8, 2-(4-chloro-2-(2-hydroxyethoxy)phenyl)-1-(6-fluoro-5-methyl-1H-indol-3-yl)-2-((3-methoxy-5-(methylsulfonyl)phenyl)amino)ethanone], the EC50 in data set [1] (setting [2]) came out at 0.27 nM. The CC50 in the data set “in vitro” was 2800 nM.

As to `COc1cc(NC(C(=O)c2c[nH]c3c(C)cc(OC(F)(F)F)cc23)c2ccc(Cl)cc2OCCO)cc(S(C)(=O)=O)c1` (single isomer, unassigned) [Compound 12A, 2-(4-chloro-2-(2-hydroxyethoxy)phenyl)-2-((3-methoxy-5-(methylsulfonyl)phenyl)amino)-1-(7-methyl-5-(trifluoromethoxy)-1H-indol-3-yl)ethanone], in data set [1], the EC50 was found to be 5 nM. Further, the CC50 in “in vitro” is 2500 nM.

On to `COc1cc(NC(C(=O)c2c[nH]c3ccc(OC(F)(F)F)cc23)c2ccc(Cl)cc2OCCO)cc(S(C)(=O)=O)c1` (racemic) [Compound 10, 2-(4-chloro-2-(2-hydroxyethoxy)phenyl)-2-((3-methoxy-5-(methylsulfonyl)phenyl)amino)-1-(5-(trifluoromethoxy)-1H-indol-3-yl)ethanone], for which, in data set [1] (setting [2]), the EC50 came out at 0.1 nM. Besides, in the data set “in vitro”, the CC50 is > 2400 nM.

For `COc1cc(NC(C(=O)c2c[nH]c3cc(OC)c(OC(F)(F)F)cc23)c2ccc(Cl)cc2OCCO)cc(S(C)(=O)=O)c1` (single isomer, unassigned) [Compound 11A, 2-(4-chloro-2-(2-hydroxyethoxy)phenyl)-2-((3-methoxy-5-(methylsulfonyl)phenyl)amino)-1-(6-methoxy-5-(trifluoromethoxy)-1H-indol-3-yl)ethanone], the EC50 in data set [1] was determined as 1.5 nM. The CC50 in “in vitro” is > 2300 nM.

Turning to `COc1cc(NC(C(=O)c2c[nH]c3ccc(OC(F)(F)F)cc23)c2ccc(Cl)cc2OCCO)cc(S(C)(=O)=O)c1` (single isomer, unassigned) [Compound 10A, 2-(4-chloro-2-(2-hydroxyethoxy)phenyl)-2-((3-methoxy-5-(methylsulfonyl)phenyl)amino)-1-(5-(trifluoromethoxy)-1H-indol-3-yl)ethanone], the EC50 in data set [1] came to 2.9 nM. This compound also returned a CC50 in the data set “in vitro” of 2300 nM.

With `COc1cc(NC(C(=O)c2c[nH]c3cc(F)ccc23)c2ccc(Cl)cc2OCCO)cc(S(C)(=O)=O)c1` (racemic) [Compound 1, 2-(4-chloro-2-(2-hydroxyethoxy)phenyl)-1-(6-fluoro-1H-indol-3-yl)-2-((3-methoxy-5-(methylsulfonyl)phenyl)amino)ethanone], the EC50 in data set [1] (setting [2]) came out at 0.43 nM. In “in vitro”, this compound displayed a CC50 of 5100 nM.

Consider `COc1cc(NC(C(=O)c2c[nH]c3cc(OC)c(C)cc23)c2ccc(Cl)cc2OCCO)cc(S(C)(=O)=O)c1` (racemic) [Compound 6, 2-(4-chloro-2-(2-hydroxyethoxy)phenyl)-2-((3-methoxy-5-(methylsulfonyl)phenyl)amino)-1-(6-methoxy-5-methyl-1H-indol-3-yl)ethanone], for which the EC50 in data set [1] (setting [2]) was found to be 0.37 nM. In addition, the CC50 in the data set “in vitro” amounted to 4700 nM.
